Target: T1, TvFAP40 (Trichomonas vaginalis, UniProt A2DSS2)
T1 construct: gene TVAG_347810; native full-length protein in doublet microtubules isolated from parasite flagella; C-terminal residue Tyr377; head domain 1-145, coiled-coil tail 149-361; ligand in head domain
T1 sequence (A2DSS2 1-377): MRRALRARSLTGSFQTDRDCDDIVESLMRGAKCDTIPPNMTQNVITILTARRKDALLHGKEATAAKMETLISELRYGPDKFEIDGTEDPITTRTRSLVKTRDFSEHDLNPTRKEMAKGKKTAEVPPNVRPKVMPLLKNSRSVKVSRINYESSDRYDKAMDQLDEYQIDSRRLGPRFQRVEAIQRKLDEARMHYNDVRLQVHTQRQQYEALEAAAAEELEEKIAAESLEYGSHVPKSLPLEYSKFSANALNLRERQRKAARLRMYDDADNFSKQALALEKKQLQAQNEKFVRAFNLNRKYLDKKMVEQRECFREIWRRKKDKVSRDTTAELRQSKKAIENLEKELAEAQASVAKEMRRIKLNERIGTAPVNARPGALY
Assay: cryo-EM structure of native doublet microtubules
Assay type: binding
Conditions: co-purified endogenous ligand, putatively assigned from map density; positively charged pocket of head domain; likely metal cation nearby
From the text: cryo-EM structure of native doublet microtubules on TvFAP40 | consistent with bonding to a non-planar six-membered ring.

Structure (SMILES): O=P(O)(O)O[C@H]1[C@H](OP(=O)(O)O)[C@@H](OP(=O)(O)O)[C@H](OP(=O)(O)O)[C@@H](OP(=O)(O)O)[C@H]1OP(=O)(O)O [IP6]
- cryo-EM structure of native doublet microtubules: consistent with bonding to a non-planar six-membered ring. Together these features suggested an inositol polyphosphate

Source: article PMC11398567, “Structures of Native Doublet Microtubules from Trichomonas vaginalis Reveal Parasite-Specific Proteins as Potential Drug Targets” (Research Square, 2024)
